Structures can show the parent of a compound that is named as a salt. Where two headings read alike, the source gives them in different places.

Here are results for two molecules from US10626110B2, “Polymorph of pazopanib hydrochloride and preparation process thereof” (FORMOSA LABORATORIES, INC., priority 2018, dated 2020).

Series [1] can be described thus: Stability / storage (statement only, no method described). It counts as physicochemical. The following applies: no data given.
A short description of series [2]: Solubility analysis in 0.1 M HCl and phosphate buffer (pH 4.5 and pH 6.8). It counts as physicochemical. The text has this:
The solubility of Pazopanib HCl Form F and Pazopanib HCl Form A in 0.1 M HCl and phosphate buffer (pH4.5 and pH6.8) was examined in the present analysis.

For the molecule `Cc1ccc(Nc2nccc(N(C)c3ccc4c(C)n(C)nc4c3)n2)cc1S(N)(=O)=O` [Pazopanib HCl Form F, Pazopanib hydrochloride], the Stability result in series [1] is “better stability, and can be stored for a long time”. Besides, the “Solubility (descriptive term)” value is listed as “Very slightly soluble” in series [2] (0.1M HCl); “Practically insoluble” in series [2] (Phosphate buffer, pH 4.5); “Practically insoluble” in series [2] (Phosphate buffer, pH 6.8). Moreover, in series [2] (0.1M HCl), the “Solubility compared with Pazopanib HCl Form A” value was “better solubility in 0.1 M HCl than Pazopanib HCl Form A”. The molecule further came in with a solubility in series [2] (0.1M HCl, hydrochloride) of 669 µg/mL.

`Cc1ccc(Nc2nccc(N(C)c3ccc4c(C)n(C)nc4c3)n2)cc1S(N)(=O)=O` [Pazopanib HCl Form A, Pazopanib hydrochloride]: the “Solubility (descriptive term)” value in series [2] (0.1M HCl) is listed as “Very slightly soluble”; in series [2] (Phosphate buffer, pH 4.5), “Practically insoluble”; in series [2] (Phosphate buffer, pH 6.8), “Practically insoluble”. Moreover, the solubility in series [2] (0.1 M HCl, simulated gastric fluid, thermodynamic from solid, 0.1M HCl, read-out: Solubility) was 584 µg/mL.
